Assay [1] concerns human duodenum monolayer culture. As to the kind of experiment: Increased trans-epithelial resistance (TEER) in human organoid monolayer cell cultures. It counts as cell-based. As to conditions: 1 μM apical, baseline corrected. In a few lines:
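Human duodenum organoid-derived monolayers on 0.4 μm Transwells, differentiated with EGF, noggin, A83-01 from day 3, dosed apically on day 6 or 7 with 1 μM compound at 37° C., 5% CO2, duplicate wells. TEER read before and 30 min and 1 hr after dosing, baseline-corrected and expressed as percent of DMSO vehicle.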

In another assay the test system is gastrointestinal transit. As to the kind of experiment: Restoration of gastrointestinal motility in opioid induced constipation (loperamide). As to conditions: oral gavage 15 mg/kg, loperamide s.c., Evans Blue small intestinal transit 30 minutes. It counts as in vivo, mice. As to the method: Approximately eight-week old, female, CD1 […] are purchased from Envigo (Livermore, Calif.), are housed 4 per cage and acclimated for at least 48 hours before study initiation. Animals are fed standard laboratory rodent chow Harlan Teklad Global 2018 (Madison, Wis.). Animals have ad libitum access to food and water for the duration of the acclimation period and are maintained in a temperature and humidity controlled room on a standard light/dark cycle of 6 AM to 6 PM. Following an overnight fast, with free access to water, animals are dosed by oral gavage with varying doses of test compound or vehicle (3 mM HCl, 0.01% Tween80), at a dose volume of 5 mL/kg. […] For an individual animal, the length travels by the Evans Blue dye front is divided by the length of the whole small intestine, measured from the pylorus to the cecum, and multiplied by 100, to provide the distance of the small intestine travelled by the dye as a percentage.

In assay [2] the test system is absorption of sodium from the intestinal lumen. As to the kind of experiment: Inhibition of intestinal sodium absorption in rats. As to conditions: 13-hours post-dose; for response vs control in vivo at 0.003 mg/kg / response vs control in vivo at 0.01 mg/kg / response vs control in vivo at 0.03 mg/kg / response vs control in vivo at 0.1 mg/kg: Rattus norvegicus, Sprague Dawley rats, read-out: Urinary Na (% of Vehicle, out/in); for response vs control in vivo at 0.003 mg/kg: oral gavage 0.003 mg/kg; for response vs control in vivo at 0.01 mg/kg: oral gavage 0.01 mg/kg; for response vs control in vivo at 0.03 mg/kg: oral gavage 0.03 mg/kg; for response vs control in vivo at 0.1 mg/kg: oral gavage 0.1 mg/kg; for FFS (1-5): rats, group median fecal form score, 1 normal pellet to 5 liquid fecal streams. It counts as in vivo, Sprague Dawley rats. As to the method: Urinary sodium excretion and fecal form were measured to assess the ability of selected example compounds to inhibit the absorption of sodium from the intestinal lumen. Eight-week old, male, Sprague Dawley rats were purchased from Envigo (Livermore, Calif.), were housed 2 per cage and acclimated for at least 48 hours before study initiation. Animals were fed. Harlan Teklad Global TD.160470 rodent chow (Madison, Wis.), standard laboratory rodent chow Harlan Teklad Global 2018 with the addition of 0.4% inorganic phosphorous. Animals had ad libitum access to food and water for the duration of the study and were maintained in a temperature and humidity controlled room on a standard light/dark cycle of 6 AM to 6 PM. On the day of study initiation, rats (n=5/group) were dosed by oral gavage with test compound or vehicle (3 mM HCl, 0.01% Tween80) at a dose volume of […]. Immediately after dose administration animals were placed in individual metabolic cages. At 13-hours post-dose, urine samples were collected and fecal form was assessed. In addition, the weight of food consumed over the 13-hour period was measured and recorded. Fecal forms were scored according to a common scale associated with increasing fecal water to the wettest observation in the cage's collection funnel (1, normal pellet; 2, pellet adhering to sides of collection funnel due to moisture; 3, loss of normal pellet shape; 4, complete loss of shape with a blotting pattern; 5, liquid fecal streams evident). Fecal form score (FFS) was calculated for each group as the median of each individual rat's FFS within the group and reported in Table 7. Fecal samples were dried using a lyophilizer for at least 3 days, following which dry weight was recorded and fecal fluid content was calculated based on the difference between the wet and dry stool weights. Fecal fluid content was calculated as a change from the vehicle group mean. For urine samples, the volumes were determined gravimetrically. Urine samples were analyzed on an ion chromatography system (Thermo Fisher ICS-3000 or ICS-5000+) coupled with conductivity detectors. Chromatographic separation of cations was performed using an IonPac CS12A (Thermo Fisher) 2×250 mm analytical column with an isocratic elution using 25 mM methanesulfonic acid. Concentrations were interpolated from a standard curve (prepared in 10 mM HCl) for sodium based on retention time and peak area. Thirteen-s-hour urinary sodium excretion (mg/13-hours) was calculated by multiplying urinary sodium concentration by 13-hour urine volume. The urinary sodium excretion of compound treatment was normalized to dietary sodium intake and expressed as a percentage of the vehicle mean.

Where [3] appears, read: 1 hr after dosing, read-out: TEER at 60 minutes (% of Vehicle).
[4] abbreviates: 0.5 h, 30 mins after dosing, read-out: TEER at 30 minutes (% of Vehicle).

The structures appear in SMILES notation. Where two headings read alike, the source gives them in different places. Some results are limits rather than exact numbers.

With `N#Cc1cc(Cl)cc2c1C[C@H](N1CCNCC1)[C@H]2Oc1ccc(S(=O)(=O)NCCOCCOCCNC(=O)NCCCCNC(=O)NCCOCCOCCNS(=O)(=O)c2ccc(O[C@H]3c4cc(Cl)cc(C#N)c4C[C@@H]3N3CCNCC3)cc2)cc1` [Example 41, 3-[2-(2-[2-[(4-[[(1S,2S)-6-Chloro-4-cyano-2-(piperazin-1-yl)-2,3-dihydro-1H-inden-1-yl]oxy]benzene)sulfonamido]ethoxy]ethoxy)ethyl]-1-[4-([[2-(2-[2-[(4-[[(1S,2S)-6-chloro-4-cyano-2-(piperazin-1-yl)-2,3-dihydro-1H-inden-1-yl]oxy]benzene)sulfonamido]ethoxy]ethoxy)ethyl]carbamoyl]amino)butyl]urea; bis(trifluoroacetic acid)], the activity at 1 µM in assay [1] (setting [3]) and in assay [1] (setting [4]) was 100 to 130% each time. Besides, the “% Restoration of Transit” value in the assay with gastrointestinal transit is “A (<20%)”. Moreover, the response vs control in vivo at 0.003 mg/kg in assay [2] was more than 70%. In assay [2], the response vs control in vivo at 0.01 mg/kg was more than 70%. For the same molecule, the response vs control in vivo at 0.03 mg/kg in assay [2] was 40 to 70%. The response vs control in vivo at 0.1 mg/kg in assay [2] was less than 40%. Also, the “FFS (1-5)” value is 2 in assay [2] (0.003 mg/kg), 2 in assay [2] (0.01 mg/kg), 2 in assay [2] (0.03 mg/kg) and 5 in assay [2] (0.1 mg/kg).

For `N#Cc1cc(Cl)cc2c1C[C@H](N1CCNCC1)[C@H]2Oc1ccc(S(=O)(=O)NC2CCN(C(=O)CCCNC(=O)NCCCCNC(=O)NCCCC(=O)N3CCC(NS(=O)(=O)c4ccc(O[C@H]5c6cc(Cl)cc(C#N)c6C[C@@H]5N5CCNCC5)cc4)CC3)CC2)cc1` [Example 115], the activity at 1 µM in assay [1] (setting [3]) and in assay [1] (setting [4]) was 100 to 130% in each case. In addition, in the assay with gastrointestinal transit, the “% Restoration of Transit” value is listed as “B (20-40%)”. The response vs control in vivo at 0.003 mg/kg in assay [2] was more than 70%. The response vs control in vivo at 0.01 mg/kg in assay [2] was more than 70%. The response vs control in vivo at 0.03 mg/kg in assay [2] is more than 70%. Further, in assay [2], the response vs control in vivo at 0.1 mg/kg was less than 40%. For the same molecule, the “FFS (1-5)” value in assay [2] (0.003 mg/kg) was 1; in assay [2] (0.01 mg/kg), 2; in assay [2] (0.03 mg/kg), 2; in assay [2] (0.1 mg/kg), 2.

For the origin of these results see patent publication US11242337B2, “Compounds useful for treating gastrointestinal tract disorders” (Ardelyx, Inc., priority 2017, dated 2022).
